Measurements published in patent publication US7470702B2, “Benzimidazoles” (Merck Patent GmbH, priority 2003, dated 2008).

Target: TIE-2 (Homo sapiens, UniProt Q02763)
Assay: Inhibition of TIE-2 (flashplate kinase assay, poly(Glu, Tyr) phosphorylation, 33P-ATP)
Format: biochemical
Procedure: The TIE-2 tests can be carried out, for example, analogously to the methods indicated in WO 02/44156.
The assay determines the inhibiting activity of the substances to be tested in the phosphorylation of the substrate poly(Glu, Tyr) by Tie-2 kinase in the presence of radioactive ^33P-ATP. The phosphorylated substrate binds to the surface of a “flashplate” microtitre plate during the incubation time. After removal of the reaction mixture, the microtitre plate is washed a number of times and the radioactivity on its surface is subsequently measured. An inhibiting effect of the substances to be measured results in lower radioactivity compared with an undisturbed enzymatic reaction.

Chain of TIE-2 (Q02763 23-1124, species assumed): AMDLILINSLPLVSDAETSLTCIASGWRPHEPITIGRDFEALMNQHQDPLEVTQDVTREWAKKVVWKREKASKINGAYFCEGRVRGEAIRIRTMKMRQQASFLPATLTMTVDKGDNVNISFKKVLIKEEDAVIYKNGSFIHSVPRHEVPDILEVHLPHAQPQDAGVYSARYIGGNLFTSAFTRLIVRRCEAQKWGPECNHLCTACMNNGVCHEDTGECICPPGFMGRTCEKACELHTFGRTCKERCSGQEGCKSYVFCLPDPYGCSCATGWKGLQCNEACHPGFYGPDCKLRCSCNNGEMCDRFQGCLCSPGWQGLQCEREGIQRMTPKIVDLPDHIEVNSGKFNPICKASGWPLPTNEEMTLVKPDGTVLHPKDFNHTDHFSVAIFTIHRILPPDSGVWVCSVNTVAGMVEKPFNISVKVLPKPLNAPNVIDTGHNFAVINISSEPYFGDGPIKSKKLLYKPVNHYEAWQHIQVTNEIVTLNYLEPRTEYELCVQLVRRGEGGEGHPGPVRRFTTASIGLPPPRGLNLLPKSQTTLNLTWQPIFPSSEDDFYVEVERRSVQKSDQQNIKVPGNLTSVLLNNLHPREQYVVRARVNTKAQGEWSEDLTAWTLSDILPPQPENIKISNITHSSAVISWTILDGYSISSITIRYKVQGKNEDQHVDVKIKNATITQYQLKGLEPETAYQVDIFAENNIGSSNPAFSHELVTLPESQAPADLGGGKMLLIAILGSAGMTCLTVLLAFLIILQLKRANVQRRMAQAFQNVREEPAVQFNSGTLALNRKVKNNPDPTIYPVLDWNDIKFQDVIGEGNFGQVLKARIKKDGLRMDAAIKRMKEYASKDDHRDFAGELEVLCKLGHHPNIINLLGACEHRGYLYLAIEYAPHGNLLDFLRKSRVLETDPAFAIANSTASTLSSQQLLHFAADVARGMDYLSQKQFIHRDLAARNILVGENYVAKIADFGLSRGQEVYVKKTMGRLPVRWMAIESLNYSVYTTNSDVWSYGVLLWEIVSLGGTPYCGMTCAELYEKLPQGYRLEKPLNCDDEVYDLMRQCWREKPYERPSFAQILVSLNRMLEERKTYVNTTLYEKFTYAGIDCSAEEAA

Compound | IC50
Cc1ccc2nc(Nc3ccc(Oc4ccncc4)cc3)[nH]c2c1 [(3), (6-Methyl-1H-benzimidazol-2-yl)[4-(pyridin-4-yloxy)phenyl]amine] | 4000 nM
FC(F)(F)c1cc(Br)c2nc(Nc3ccc(Oc4ccncc4)cc3)[nH]c2c1 [(5), (4-Bromo-6-trifluoromethyl-1H-benzimidazol-2-yl)[4-(pyridin-4-yloxy)phenyl]amine] | 500 nM
FC(F)(F)c1cc(Cl)c2nc(Nc3ccc(Oc4ccncc4)cc3)[nH]c2c1 [(14), (4-Chloro-6-trifluoromethyl-1H-benzimidazol-2-yl)[4-(pyridin-4-yloxy)phenyl]amine] | 900 nM
